Test results reported in US20260271927A1, “PESTICIDALLY ACTIVE BICYCLIC COMPOUNDS” (SYNGENTA CROP PROTECTION AG, priority 2023, published 2026).

Columns and labels:
Format in all cases: in vivo
[1] = system: Chilo suppressalis (Striped Rice Stemborer); assay: Chilo suppressalis (striped rice stemborer), artificial diet in 24-well plates, L2 larvae; conditions: 144 h, application rate of 200 ppm, 6 days after infestation, read-out: control in at least one of the three categories (mortality, anti-feedant effect, or growth inhibition)
Procedure: 24-well microtiter plates with artificial diet were treated with aqueous test solutions prepared from 10′000 ppm DMSO stock solutions by pipetting. After drying, the plates were infested with L2 larvae (6-8 per well). The samples were assessed for mortality, anti-feeding effect, and growth inhibition in comparison to untreated samples 6 days after infestation. Control of Chilo suppressalis by a test sample is given when at least one of the categories mortality, anti-feedant effect, and growth inhibition is higher than the untreated sample.

[2] = system: Myzus persicae (Green Peach Aphid); assay: Myzus persicae intrinsic activity, sucrose solution under Parafilm; conditions: 120 h, application rate of 12.5 ppm, 5 days after infestation, read-out: control (assessed for mortality)
Procedure: Test compounds prepared from 10′000 ppm DMSO stock solutions were applied by pipette into 24-well microtiter plates and mixed with sucrose solution. The plates were closed with a stretched Parafilm. A plastic stencil with 24 holes was placed onto the plate and infested pea seedlings were placed directly on the Parafilm. The infested plate was closed with a gel blotting paper and another plastic stencil and then turned upside down. The samples were assessed for mortality 5 days after infestation.

[3] = system: Myzus persicae (Green Peach Aphid); assay: Myzus persicae systemic activity, roots of pea seedlings in test solution; conditions: 144 h, test rate of 24 ppm, 6 days after placing seedlings into test solutions
Procedure: Roots of pea seedlings infested with an aphid population of mixed ages were placed directly into aqueous test solutions prepared from 10′000 DMSO stock solutions. The samples were assessed for mortality 6 days after placing seedlings into test solutions.

[4] = system: Myzus persicae (Green Peach Aphid); assay: Myzus persicae feeding/contact activity, eggplant leaf discs; conditions: foliar, 144 h, application rate of 200 ppm, 6 days after infestation, read-out: growth inhibition
Procedure: (§1) Eggplant leaf discs were placed onto agar in a 24-well microtiter plate and sprayed with aqueous test solutions prepared from 10′000 ppm DMSO stock solutions. After drying, the leaf discs were infested with an aphid population of mixed ages. The samples were assessed for mortality 6 days after infestation.

[5] = system: Bemisia tabaci (Cotton White Fly); assay: Bemisia tabaci feeding/contact activity, cotton leaf discs, adult white flies; conditions: foliar, 144 h, application rate of 200 ppm, 6 days after incubation
Procedure: Cotton leaf discs were placed on agar in 24-well microtiter plates and sprayed with aqueous test solutions prepared from 10′000 ppm DMSO stock solutions. After drying the leaf discs were infested with adult white flies. The samples were checked for mortality 6 days after incubation.

[6] = system: Diabrotica balteata (Corn Root Worm); assay: Diabrotica balteata (corn root worm), sprayed maize sprouts, L2 larvae; conditions: 96 h, application rate of 200 ppm, 4 days after infestation, read-out: control in at least one of the two categories (mortality or growth inhibition)
Procedure: Maize sprouts placed onto an agar layer in 24-well microtiter plates were treated with aqueous test solutions prepared from 10′000 ppm DMSO stock solutions by spraying. After drying, the plates were infested with L2 larvae (6 to 10 per well). The samples were assessed for mortality and growth inhibition in comparison to untreated samples 4 days after infestation.

[7] = system: Tetranychus urticae (Two-Spotted Spider Mite); assay: Tetranychus urticae feeding/contact activity, bean leaf discs; conditions: foliar, 192 h
Procedure: Bean leaf discs on agar in 24-well microtiter plates were sprayed with aqueous test solutions prepared from 10′000 ppm DMSO stock solutions. After drying the leaf discs were infested with a mite population of mixed ages. The samples were assessed for mortality on mixed population (mobile stages) 8 days after infestation.

[8] = system: Plutella xylostella (Diamond Back Moth); assay: Plutella xylostella (diamond back moth), artificial diet, eggs; conditions: 192 h, application rate of 200 ppm, 8 days after infestation, read-out: effect in at least one of the two categories (mortality or growth inhibition)
Procedure: 24-well microtiter plates with artificial diet were treated with aqueous test solutions prepared from 10′000 ppm DMSO stock solutions by pipetting. After drying, Plutella eggs were pipetted through a plastic stencil onto a gel blotting paper and the plate was closed with it. The samples were assessed for mortality and growth inhibition in comparison to untreated samples 8 days after infestation.

[9] = system: Spodoptera littoralis (Egyptian Cotton Leaf Worm); assay: Spodoptera littoralis (Egyptian cotton leaf worm), cotton leaf discs, L1 larvae; conditions: foliar, 72 h, application rate of 200 ppm, 3 days after infestation, read-out: control in at least one of the three categories (mortality, anti-feedant effect, or growth inhibition)
Procedure: Cotton leaf discs were placed onto agar in 24-well microtiter plates and sprayed with aqueous test solutions prepared from 10′000 ppm DMSO stock solutions. After drying the leaf discs were infested with five L1 larvae. The samples were assessed for mortality, anti-feeding effect, and growth inhibition in comparison to untreated samples 3 days after infestation. Control of Spodoptera littoralis by a test sample is given when at least one of the categories mortality, anti-feedant effect, and growth inhibition is higher than the untreated sample.

[10] = system: Myzus persicae (Green Peach Aphid); assay: Myzus persicae feeding/contact activity, sunflower leaf discs; conditions: foliar, 144 h, application rate of 200 ppm, 6 days after infestation
Procedure: as §1, with “Sunflower” for “Eggplant”

SMILES	percent control (mortality, anti-feedant effect or growth inhibition) at 200 ppm [1] [%]	mortality at 24 ppm [3] [%]	mortality at 200 ppm [4] [%]	percent control (mortality or growth inhibition) at 200 ppm [6] [%]	also measured
O=C(O)[C@H]1[C@@H]2OCCO[C@@H]21 [Compound P7, (1α,6α,7α)-2,5-dioxabicyclo[4.1.0]heptane-7-carboxylic acid]	≥ 80	≥ 80	≥ 80		mortality at 12.5 ppm [2]: ≥ 80%; mortality at 200 ppm [5]: ≥ 80%
O=C(NC1CCOCC1)[C@H]1[C@@H]2OCCO[C@@H]21 [Compound P37, (1α,6α,7α)-N-tetrahydropyran-4-yl-2,5-dioxabicyclo[4.1.0]heptane-7-carboxamide]		≥ 80			
CN(C)C(=O)[C@H]1[C@@H]2OCCO[C@@H]21 [Compound P10, (1α,6α,7α)-N,N-dimethyl-2,5-dioxabicyclo[4.1.0]heptane-7-carboxamide]	≥ 80				
NC(=O)[C@H]1[C@@H]2CCCO[C@@H]21 (relative stereo) [Compound P1, rel-(1R,6R,7R)-2-oxabicyclo[4.1.0]heptane-7-carboxamide]				≥ 80	mortality at 200 ppm [7]: ≥ 80%
Cn1ccc(NC(=O)[C@H]2[C@@H]3OCCO[C@@H]32)n1 [Compound P30, (1α,6α,7α)-N-(1-methylpyrazol-3-yl)-2,5-dioxabicyclo[4.1.0]heptane-7-carboxamide]		≥ 80		≥ 80	
Cc1ccc(NC(=O)[C@H]2[C@@H]3OCCO[C@@H]32)c(F)c1 [Compound P17, (1α,6α,7α)-N-(2-fluoro-4-methyl-phenyl)-2,5-dioxabicyclo[4.1.0]heptane-7-carboxamide]				≥ 80	
CCC(NC(=O)[C@H]1[C@@H]2OCCO[C@@H]21)c1ccc(Cl)cc1 (stereo partly drawn) [Compound P40, (1α,6α,7α)-N-[1-(4-chlorophenyl)propyl]-2,5-dioxabicyclo[4.1.0]heptane-7-carboxamide]				≥ 80	
CCONC(=O)[C@H]1[C@@H]2OCCO[C@@H]21 [Compound P15, (1α,6α,7α)-N-ethoxy-2,5-dioxabicyclo[4.1.0]heptane-7-carboxamide]	≥ 80	≥ 80	≥ 80		mortality at 12.5 ppm [2]: ≥ 80%; percent effect (mortality or growth inhibition) at 200 ppm [8]: ≥ 80%
CCOC(=O)[C@H]1[C@@H]2OCCO[C@@H]21 [Compound P8, Ethyl(1α,6α,7α)-2,5-dioxabicyclo[4.1.0]heptane-7-carboxylate]	≥ 80	≥ 80	≥ 80	≥ 80	mortality at 12.5 ppm [2]: ≥ 80%; percent effect (mortality or growth inhibition) at 200 ppm [8]: ≥ 80%; mortality at 200 ppm [5]: ≥ 80%
Cn1nccc1NC(=O)[C@H]1[C@@H]2OCCO[C@@H]21 [Compound P38, (1α,6α,7α)-N-(2-methylpyrazol-3-yl)-2,5-dioxabicyclo[4.1.0]heptane-7-carboxamide]				≥ 80	
O=C(NCC1CC1)[C@H]1[C@@H]2OCCO[C@@H]21 [Compound P28, (1α,6α,7α)-N-(cyclopropylmethyl)-2,5-dioxabicyclo[4.1.0]heptane-7-carboxamide]					percent control (mortality, anti-feedant effect or growth inhibition) at 200 ppm [9]: ≥ 80%
O=C(NOC1CCC1)[C@H]1[C@@H]2OCCO[C@@H]21 [Compound P31, (1α,6α,7α)-N-(cyclobutoxy)-2,5-dioxabicyclo[4.1.0]heptane-7-carboxamide]	≥ 80	≥ 80	≥ 80	≥ 80	
O=C(NCc1ccccc1)[C@H]1[C@@H]2OCCO[C@@H]21 [Compound P41, (1α,6α,7α)-N-benzyl-2,5-dioxabicyclo[4.1.0]heptane-7-carboxamide]	≥ 80				
Cn1cc(NC(=O)[C@H]2[C@@H]3OCCO[C@@H]32)cn1 [Compound P36, (1α,6α,7α)-N-(1-methylpyrazol-4-yl)-2,5-dioxabicyclo[4.1.0]heptane-7-carboxamide]		≥ 80	≥ 80	≥ 80	
O=C(Nc1cc2ccccn2n1)[C@H]1[C@@H]2OCCO[C@@H]21 [Compound P33]				≥ 80	
O=C(NOCc1ccccc1)[C@H]1[C@@H]2OCCO[C@@H]21 [Compound P13, (1α,6α,7α)-N-benzyloxy-2,5-dioxabicyclo[4.1.0]heptane-7-carboxamide]		≥ 80	≥ 80		mortality at 200 ppm [5]: ≥ 80%
O=C(Nc1cccn(-c2ccccc2)c1=O)[C@H]1[C@@H]2CCCO[C@@H]21 (relative stereo) [Compound P4, rel-(1S,6S,7S)-N-(2-oxo-1-phenyl-3-pyridyl)-2-oxabicyclo[4.1.0]heptane-7-carboxamide]					percent control (mortality, anti-feedant effect or growth inhibition) at 200 ppm [9]: ≥ 80%
Cc1ccccc1NC(=O)[C@H]1[C@@H]2OCCO[C@@H]21 [Compound P29, (1α,6α,7α)-N-(o-tolyl)-2,5-dioxabicyclo[4.1.0]heptane-7-carboxamide]		≥ 80		≥ 80	
CNC(=O)c1ccccc1NC(=O)[C@H]1[C@@H]2OCCO[C@@H]21 [Compound P6]		≥ 80			mortality at 12.5 ppm [2]: ≥ 80%
O=C(NCc1cc(Cl)ccc1Cl)[C@H]1[C@@H]2OCCO[C@@H]21 [Compound P19, (1α,6α,7α)-N-[(2,5-dichlorophenyl)methyl]-2,5-dioxabicyclo[4.1.0]heptane-7-carboxamide]				≥ 80	
Cc1cccc(NC(=O)[C@H]2[C@@H]3OCCO[C@@H]32)c1 [Compound P16, (1α,6α,7α)-N-(m-tolyl)-2,5-dioxabicyclo[4.1.0]heptane-7-carboxamide]			≥ 80		
O=C(NOCc1c(F)cccc1F)[C@H]1[C@@H]2OCCO[C@@H]21 [Compound P14, (1α,6α,7α)-N-[(2,6-difluorophenyl)methoxy]-2,5-dioxabicyclo[4.1.0]heptane-7-carboxamide]	≥ 80	≥ 80	≥ 80		
NC(=O)[C@H]1[C@@H]2OCCO[C@@H]21 [Compound P5, (1α,6α,7α)-2,5-dioxabicyclo[4.1.0]heptane-7-carboxamide]	≥ 80	≥ 80	≥ 80	≥ 80	mortality at 200 ppm [10]: ≥ 80%; mortality at 12.5 ppm [2]: ≥ 80%
Cc1ccc(NC(=O)[C@H]2[C@@H]3OCCO[C@@H]32)cc1 [Compound P18, (1α,6α,7α)-N-(p-tolyl)-2,5-dioxabicyclo[4.1.0]heptane-7-carboxamide]		≥ 80		≥ 80	
